This test deals with T1, indoleamine 2,3-dioxygenase (IDO) (Homo sapiens, UniProt P14902).
T1 construct: media containing IFNγ (#285-IF/CF, R&D Systems) at a final concentration of 25 ng/mL; endogenous in cells; host or cells: HeLa (ATCC CCL-2), induced with IFN-gamma
Nature of the test: HeLa cell-based indoleamine 2,3-dioxygenase (IDO) assay. To be noted: HeLa cells with IFNγ 25 ng/mL, 48 hour incubation, kynurenine production. How it is done: Assessment of Inhibitor Activity in HeLa Cell-Based Indoleamine 2,3-Dioxygenase (IDO) Assay.
HeLa (ATCCR CCL-2) cells were obtained from the ATCC® and cultured in Dulbecco's Modified Eagle Medium supplemented with 4.5 g/L glucose, […] L-glutamine and […] (#10-013-CV, Corning), 2 mM L-alanyl-L-glutamine dipeptide (#35050-061, Gibco), 100U/mL penicillin, 100 µg/mL streptomycin (#SV30010, HyClone) and 10% fetal bovine serum (#SH30071.03 HyClone). Cells were maintained in a humidified incubator at 37° C. in 5% CO2.
IDO activity was assessed as a function of kynurenine production as follows: HeLa cells were seeded in a 96-well culture plate at a density of 5,000 cells/well and allowed to equilibrate overnight. After 24 hours, the media was aspirated and replaced with media containing IFNγ (#285-IF/CF, R&D Systems) at a final concentration of 25 ng/mL. A serial dilution of each test compound was added to the cells in a total volume of 200 μL of culture medium. After a further 48 hour incubation, 170 μL of supernatant was transferred from each well to a fresh 96-well plate. 12.1 μL of 6. IN trichloroacetic acid (#T0699, Sigma-Aldrich) was added to each well and mixed, followed by incubation at 65° C. for 20 minutes to hydrolyze N-formylkynurenine, the product of indoleamine 2,3-dioxygenase, to kynurenine. The reaction mixture was then centrifuged for 10 mins at 500×g to sediment the precipitate. 100 μL of the supernatant was transferred from each well to a fresh 96-well plate. 100 μl of 2% (w/v) p-dimethylaminobenzaldehyde (#15647-7, Sigma-Aldrich) in acetic acid (#A6283, Sigma-Aldrich) was added to each well mixed and incubated at room temperature for 20 mins. Kynurenine concentrations were determined by measuring absorbance at 480 nm and calibrating against an L-kynurenine (#K8625, Sigma-Aldrich) standard curve using a SPECTRAMAX® M2e microplate reader (Molecular Devices). The percentage activity at each inhibitor concentration was determined and IC50 values assessed using nonlinear regression.

Where [1] appears, read: read-out: IDO Hela IC50 potency class (A < 50, B < 250, C < 2000).

Among the data in patent US10959986B2, “Inhibitors of indoleamine 2,3-dioxygenase and methods of their use” (BRISTOL-MYERS SQUIBB COMPANY, priority 2018, dated 2021) are IC50 values, retold here.

Like-named read-outs stand apart in the source and are kept apart here.

T1 sequence (P14902 whole entry): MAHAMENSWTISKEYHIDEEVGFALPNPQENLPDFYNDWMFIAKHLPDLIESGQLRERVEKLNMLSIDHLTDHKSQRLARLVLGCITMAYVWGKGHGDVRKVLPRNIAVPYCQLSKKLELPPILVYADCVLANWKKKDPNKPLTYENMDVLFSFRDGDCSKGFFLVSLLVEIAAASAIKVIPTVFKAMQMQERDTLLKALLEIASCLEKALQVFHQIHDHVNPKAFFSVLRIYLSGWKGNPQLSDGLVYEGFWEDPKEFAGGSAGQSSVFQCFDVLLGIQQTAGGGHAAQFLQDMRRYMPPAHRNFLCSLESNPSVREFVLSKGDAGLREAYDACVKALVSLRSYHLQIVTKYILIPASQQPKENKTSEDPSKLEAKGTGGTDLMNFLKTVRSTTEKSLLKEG

For `CC[C@H](CC(=O)O)c1ccc(-c2cnn(C)c2)c(Nc2ccc(Cl)c(F)c2)c1` (single isomer, unassigned) [Example 9], the half-inhibitory concentration (IC50) (commonly the point on the concentration scale where inhibition reaches its midpoint) (read-out: IDO Hela IC50) was 20 nM.

For `CC[C@H](CC(=O)O)c1ccc(-c2nccs2)c(Nc2ccc(Cl)cc2)c1` (single isomer, unassigned) [Example 21], the IC50 is, setting by setting: (read-out: IDO Hela IC50) at least 1000 nM; under setting [1], 250 to 2000 nM.

With `CC[C@H](CC(=O)O)c1ccc(-c2cnn(C)c2)c(Nc2ccccn2)c1` (single isomer, unassigned) [Example 15], the 50% inhibitory concentration (IC50) reads like this: (read-out: IDO Hela IC50) at least 1000 nM; under setting [1], 250 to 2000 nM.

`CCOc1cnc(-c2ccc([C@H](CC)CC(=O)O)cc2Nc2cnc(OCC)nc2)cn1` (single isomer, unassigned) [Example 74]: the IC50 (read-out: IDO Hela IC50) is 450 nM.

With `COC[C@H](CC(=O)O)c1ccc(-c2cncnc2)c(Nc2ccc(C#N)cc2)c1` (single isomer, unassigned) [Example 43], the IC50 was at least 1000 nM (read-out: IDO Hela IC50) and 250 to 2000 nM under setting [1].

For the compound `CCc1ncc(Nc2cc([C@@H](CC)CC(=O)O)ccc2C2CCN(C(=O)OC(C)(C)C)CC2)cn1` (single isomer, unassigned) [Example 31], for the setting “read-out: IDO Hela IC50”, the IC50 is 20 nM.

For `CC[C@H](CC(=O)O)c1ccc(-c2cnn(C)c2)c(Nc2ccc(C)cc2)c1` (single isomer, unassigned) [Example 10], the concentration for half-maximal inhibition (IC50) (read-out: IDO Hela IC50) was determined as 40 nM.

For `CCOc1ncc(Nc2cc([C@H](CC)CC(=O)O)ccc2-c2ccc3c(cnn3C)c2)cn1` (single isomer, unassigned) [Example 51], the half-inhibitory concentration (IC50) (read-out: IDO Hela IC50) came out at 150 nM.

With `COC[C@@H](CC(=O)O)c1ccc(-c2ccoc2)c(Nc2ccc(C#N)cc2)c1` (single isomer, unassigned) [Example 35], the IC50 (read-out: IDO Hela IC50) turned out to be 10 nM.

As for `CCOc1ncc(Nc2cc([C@H](CC)CC(=O)O)ccc2-c2cccc3[nH]ncc23)cn1` (single isomer, unassigned) [Example 50], the half-maximal inhibitory concentration (IC50) (read-out: IDO Hela IC50) is at least 1000 nM and the half-inhibitory concentration (IC50) under setting [1] lay within 250 to 2000 nM.

On to `CCOc1ncc(Nc2cc([C@H](CC)CC(=O)O)ccc2-c2csc(-c3ccccc3)n2)cn1` (single isomer, unassigned) [Example 82], for which the IC50 (read-out: IDO Hela IC50) is 110 nM.

With `COC[C@H](CC(=O)O)c1ccc(-c2ccc3c(c2)OCO3)c(Nc2ccc(C#N)cc2)c1` (single isomer, unassigned) [Example 38], the IC50 (read-out: IDO Hela IC50) came out at 50 nM.

In the case of `CCOc1ncc(Nc2cc([C@@H](CC)CC(=O)O)ccc2C2CCN(C(=O)OC(C)(C)C)CC2)cn1` (single isomer, unassigned) [Example 26], the IC50 (read-out: IDO Hela IC50) stood at 20 nM.

Turning to `CCOc1ncc(Nc2cc([C@H](CC)CC(=O)O)ccc2-c2c(C)nn(C)c2C)cn1` (single isomer, unassigned) [Example 81], under “read-out: IDO Hela IC50”, the half-inhibitory concentration (IC50) is 600 nM.

On to `CCOc1ncc(Nc2cc([C@H](CC)CC(=O)O)ccc2-c2cn3ccccc3n2)cn1` (single isomer, unassigned) [Example 77], for which the IC50 is, setting by setting: (read-out: IDO Hela IC50) at least 1000 nM; under setting [1], 250 to 2000 nM.

Take `CC[C@H](CC(=O)O)c1ccc(-c2cnn(C)c2)c(Nc2ccc(C#N)cn2)c1` (single isomer, unassigned) [Example 16]: the half-maximal inhibitory concentration (IC50) reads like this: (read-out: IDO Hela IC50) at least 1000 nM; under setting [1], 250 to 2000 nM.

On to `CCOc1ncc(Nc2cc([C@H](CC)CC(=O)O)ccc2-c2ccn3nccc3n2)cn1` (single isomer, unassigned) [Example 79], for which, for the setting “read-out: IDO Hela IC50”, the IC50 came out at 400 nM.

As to `CCc1ncc(Nc2cc([C@H](CC)CC(=O)O)ccc2C2CCN(C(=O)OC(C)(C)C)CC2)cn1` (single isomer, unassigned) [Example 29], the IC50 (read-out: IDO Hela IC50) stood at 130 nM.

Take `CCOc1ncc(Nc2cc([C@H](CC)CC(=O)O)ccc2-c2ccc(C#N)cn2)cn1` (single isomer, unassigned) [Example 62]: the IC50 (read-out: IDO Hela IC50) was determined as 890 nM.

On to `CC[C@@H](CC(=O)O)c1ccc(C2CCN(C(=O)OC(C)(C)C)CC2)c(Nc2ccc(C#N)cc2)c1` (single isomer, unassigned) [Example 32], for which, under setting [1], the IC50 is under 50 nM.

`CC[C@H](CC(=O)O)c1ccc(-c2nc(C)cs2)c(Nc2ccc(Cl)cc2)c1` (single isomer, unassigned) [Example 19]: the IC50 runs as follows: (read-out: IDO Hela IC50) at least 1000 nM; under setting [1], 250 to 2000 nM.

Take `CCOc1ncc(Nc2cc([C@H](CC)CC(=O)O)ccc2-c2cnc(OCC)nc2)cn1` (single isomer, unassigned) [Example 64]: the 50% inhibitory concentration (IC50) (read-out: IDO Hela IC50) is at least 1000 nM and the half-maximal inhibitory concentration (IC50) under setting [1] lay in the range of 250 to 2000 nM.

Turning to `CC[C@H](CC(=O)O)c1ccc(C2CCN(C(=O)OC(C)(C)C)CC2)c(Nc2ccc(C#N)cc2)c1` (single isomer, unassigned) [Example 30], under setting [1], the half-inhibitory concentration (IC50) is under 50 nM.

Regarding `CCOc1ncc(Nc2cc([C@H](CC)CC(=O)O)ccc2-c2sc(C)nc2C)cn1` (single isomer, unassigned) [Example 61], the concentration for half-maximal inhibition (IC50) (read-out: IDO Hela IC50) worked out at 10 nM.

`CCOc1ncc(Nc2cc([C@H](CC)CC(=O)O)ccc2-c2c(C)noc2C)cn1` (single isomer, unassigned) [Example 54]: the IC50 (read-out: IDO Hela IC50) is 90 nM.

Consider `CCOc1ncc(Nc2cc([C@H](CC)CC(=O)O)ccc2-c2c(C)n[nH]c2C)cn1` (single isomer, unassigned) [Example 75], for which the half-maximal inhibitory concentration (IC50) was at least 1000 nM (read-out: IDO Hela IC50) and 250 to 2000 nM under setting [1].

On to `CCOc1ncc(Nc2cc([C@H](CC)CC(=O)O)ccc2-c2ccc3nc(C)oc3c2)cn1` (single isomer, unassigned) [Example 65], for which the IC50 is, setting by setting: (read-out: IDO Hela IC50) at least 1000 nM; under setting [1], 250 to 2000 nM.

With `CC[C@H](CC(=O)O)c1ccc(-c2cnn(C)c2)c(NC(=O)Nc2ccc(Cl)cc2F)c1` (single isomer, unassigned) [Example 23], the IC50 reads like this: (read-out: IDO Hela IC50) at least 1000 nM; under setting [1], 250 to 2000 nM.

Consider `CC[C@H](CC(=O)O)c1ccc(-c2cnn(C)c2)c(Nc2ccc(Cl)cc2F)c1` (single isomer, unassigned) [Example 2], for which the half-maximal inhibitory concentration (IC50) (read-out: IDO Hela IC50) is 10 nM.

For `CC[C@H](CC(=O)O)c1ccc(-c2cnn(C)c2)c(Nc2ccc(C(F)(F)F)cc2)c1` (single isomer, unassigned) [Example 14], the concentration for half-maximal inhibition (IC50) (read-out: IDO Hela IC50) turned out to be 40 nM.

Turning to `CC[C@H](CC(=O)O)c1ccc(-c2cnn(C)c2)c(Nc2cnc(C)nc2)c1` (single isomer, unassigned) [Example 12], the concentration for half-maximal inhibition (IC50) is at least 1000 nM (read-out: IDO Hela IC50) and 250 to 2000 nM under setting [1].

Regarding `CCOc1ncc(Nc2cc([C@H](CC)CC(=O)O)ccc2-c2c[nH]c3cnccc23)cn1` (single isomer, unassigned) [Example 67], the IC50 is at least 1000 nM (read-out: IDO Hela IC50) and 250 to 2000 nM under setting [1].

On to `CCOc1ncc(Nc2cc([C@H](CC)CC(=O)O)ccc2-c2nnc(C)s2)cn1` (single isomer, unassigned) [Example 89], for which the concentration for half-maximal inhibition (IC50) (read-out: IDO Hela IC50) came to 400 nM.

In the case of `CCOc1ncc(Nc2cc([C@H](CC)CC(=O)O)ccc2-c2ccc3nonc3c2)cn1` (single isomer, unassigned) [Example 78], the 50% inhibitory concentration (IC50) (read-out: IDO Hela IC50) is at least 1000 nM and the IC50 under setting [1] fell in the range of 250 to 2000 nM.

Regarding `CCOc1ncc(Nc2cc([C@H](CC)CC(=O)O)ccc2-c2cnn(-c3ccc(F)cc3)c2)cn1` (single isomer, unassigned) [Example 48], under “read-out: IDO Hela IC50”, the 50% inhibitory concentration (IC50) turned out to be 340 nM.

As for `CCOc1ncc(Nc2cc([C@H](CC)CC(=O)O)ccc2-c2nc3ccccc3s2)cn1` (single isomer, unassigned) [Example 76], the IC50 (read-out: IDO Hela IC50) is 950 nM.

Regarding `CC[C@H](CC(=O)O)c1ccc(-c2cnn(C)c2)c(Nc2ccc(C#N)cc2)c1` (single isomer, unassigned) [Example 5], the concentration for half-maximal inhibition (IC50) (read-out: IDO Hela IC50) turned out to be 110 nM.

As to `CCOc1ncc(Nc2cc([C@H](CC)CC(=O)O)ccc2-c2ccc3nc(C)sc3c2)cn1` (single isomer, unassigned) [Example 68], the IC50 (read-out: IDO Hela IC50) was found to be 500 nM.

As to “(S)-3-(2-((4-cyanophenyl)amino)- -methyl- [1,1′-biphenyl]-4-yl)-4-methoxybutanoic acid [Example 37]”, the concentration for half-maximal inhibition (IC50) is, setting by setting: (read-out: IDO Hela IC50) at least 1000 nM; under setting [1], 250 to 2000 nM.

For the compound `CCc1ncc(Nc2cc([C@@H](CC)CC(=O)O)ccc2-c2sc(C)nc2C)cn1` (single isomer, unassigned) [Example 58], the IC50 (read-out: IDO Hela IC50) amounted to 390 nM.

In the case of `CC[C@H](CC(=O)O)c1ccc(-c2cnn(C)c2)c(Nc2cccc(Cl)c2)c1` (single isomer, unassigned) [Example 7], the IC50 was at least 1000 nM (read-out: IDO Hela IC50) and 250 to 2000 nM under setting [1].

As to `CCOc1ncc(Nc2cc(C(CC)CC(=O)O)ccc2-c2ccc(OC)c(F)c2)cn1` (single isomer, unassigned) [Example 49], the 50% inhibitory concentration (IC50) (read-out: IDO Hela IC50) worked out at 30 nM.

With `CC[C@H](CC(=O)O)c1ccc(-c2nc(-c3ccccc3)cs2)c(Nc2ccc(Cl)cc2)c1` (single isomer, unassigned) [Example 20], the 50% inhibitory concentration (IC50) (read-out: IDO Hela IC50) was 30 nM.
